Read-outs that look alike come from different tables or passages of the source.
Columns and labels:
WI-38 cells [1] = assay: Propidium iodide (PI) cell-death imaging upon H2O2 stress; format: cell-based, human; settings: for Assay 7: H2O2-resistant, at 10 uM, validated by propidium iodide (PI) cell-death imaging: w/H2O2, 3 hrs/4 hrs/5 hrs, YES/NO; for cytotoxicity at 10 µM: Homo sapiens, WI-38
[2] = test system: human dermal fibroblast (HDF) primary cells; assay: H2O2-resistance in primary human dermal fibroblasts; format: cell-based; settings: for fold induction at 10 µM: Homo sapiens; for Assay 6: H2O2-resistant, at 10 uM, human dermal fibroblast (HDF) primary cells: YES/NO
LC3A/B puncta = assay: Autophagy induction analysis (LC3A/B puncta immuno-staining); format: cell-based, human; settings: for Assay 15: Potential autophagy induction by LC3A/B puncta assays: 10 uM & 20 uM, YES/NO; for Exp. 1, induction of LC3A/B puncta (Up), total intensity normalized by total number of nuclei in the fields / Exp. 1, normalized change of nuclei numbers (Less cells): Exp. 1, 10 μM, 10X objective; for Exp. 1, induction of LC3A/B puncta (Up), total intensity normalized by total number of nuclei in the fields / Exp. 1, normalized change of nuclei numbers (Less cells) / Exp. 2, normalized change of nuclei numbers (Less cells): WI-38 cells; for Exp. 2, normalized change of nuclei numbers (Less cells): 20X objective, lysosomal LAMP co-staining
Protocol: Immuno-staining of LC3A/B was performed, following a standard protocol. Briefly, WI-38 cells were treated with small molecules for 24 hrs, and then processed and incubated with primary antibody (Cell Signaling, rabbit anti-LC3A/B, 1:100) overnight at 4° C. Next day, samples were processed and incubated with fluorophore-conjugated secondary antibody and further incubated with DAPI dye. Images were collected on the INCell Analyzer 2000 (Experiment 1: 10× objective; Experiment 2: 20× objective) and analyzed with the Developer Toolbox. For Experiment 2, lysosomal-associated membrane protein 2 (LAMP2) was also counter-stained to identify the LC3A/B puncta that colocalize with lysosome and the data were analyzed by the MetaXpress software (Molecular Devices, version 5.1). The intensity of total (Exp. 1) or LAMP2-colocalized LC3A/B puncta (Exp. 2) was normalized the total numbers nuclei in the fields.
These assays were performed, following the same procedures to analyze DNA-damage markers. WI-38 cells were incubated with small molecules for 24 hrs, and then processed and incubated with primary antibody (rabbit anti-LC3A/B, 1:100) overnight at 4 C. The next day, samples were processed and incubated with fluorophore-conjugated secondary antibody and further incubated with DAPI dye. Images were collected on an INCell Analyzer 2000 and analyzed with the Developer software. Total LC3A/B puncta intensity was normalized the total numbers of DAPI-positive nuclei.

[3] = test system: phosphorylated γH2A.X and TP53BP1; assay: DNA damage marker analysis (immuno-staining); settings: for activity at 10 µM: Homo sapiens, WI-38, 24 h; for P = Potential DNA-damaging / R = Potential DNA damaging: human, 24 h
Protocol: WI-38 cells were seeded on 96-well plates and cultured for 24 hrs and then incubated with small molecules for another 24 hrs. As the positive control to damage DNA, H2O2 was supplemented at 700 μM final concentration for the last 3 hrs. Cells were washed with phosphate-buffered saline (PBS), fixed with 4% paraformaldehyde and then blocked with 5% normal goat serum (Cell Signaling), plus 0.3% Triton X-100, for 1 hr. Primary antibody cocktail (rabbit anti-phospho-histone γH2A.X (Ser-139), 1:100; anti-phospho-TP53BP1 (Ser-1778), 1:100), prepared in 1% BSA and 0.3% Triton X-100/PBS, was then introduced and incubated overnight at 4 C. Next day, samples were washed with PBS and further incubated with fluorophore-conjugated secondary antibody (1:1,000) for 1 hr in the dark. Samples were then washed and incubated with DAPI dye (Life Technologies) (4 μg/ml final concentration) for the last 10 minutes. Images were collected on an INCell Analyzer 2000 (GE) and analyzed with the Developer software.
WI-38 cells were seeded (˜8,000 cells per well) on 96-well plates and cultured for 24 hrs and then incubated with small molecules for another 24 hrs. Doxorubicin (300 nM, 24 hrs) and H2O2 (700 μM, 3 hrs) were also introduced as the positive controls to damage DNA. Cells were washed with phosphate-buffered saline (PBS), fixed with 4% paraformaldehyde for 30 min and then blocked with 5% normal goat serum (Cell Signaling) and 0.3% Triton X-100 for 1 hr. Primary antibody cocktail (Cell Signaling, rabbit anti-phospho-histone γH2A.X (Ser-139), 1:100; anti-phospho-TP53BP1 (Ser-1778), 1:100) was prepared in PBS with 1% BSA and 0.3% Triton X-100 and incubated overnight at 4° C. Next day, samples were washed with PBS and further incubated with fluorophore-conjugated secondary antibody (1:1,000) for 1 hr in dark. Samples were then washed and incubated with DAPI dye (Life Technologies) (4 μg/ml final concentration) for 30 minutes. Images were collected on the INCell Analyzer 2000 (10× objective) and analyzed with the Developer Toolbox.

WI-38 cells [4] = assay: Long-term effects on cell viability (5 days, ATP; morphology, PI imaging); format: cell-based; settings: 10 μM; for Luminescence signal for ATP measurement, day-1 Average / Luminescence signal for ATP measurement, day-2 Average / Luminescence signal for ATP measurement, day-3 Average / Luminescence signal for ATP measurement, day-4 Average / Luminescence signal for ATP measurement, day-5 Average / viability at 10 µM: Batch 1; for Luminescence signal for ATP measurement, day-1 Average / Luminescence signal for ATP measurement, day-2 Average / Luminescence signal for ATP measurement, day-3 Average / Luminescence signal for ATP measurement, day-4 Average / Luminescence signal for ATP measurement, day-5 Average: n = 6, day-0 luminescence = 320956 ± 24708; for viability at 10 µM: Homo sapiens, WI-38, 120 h, DMSO ctrl = 100.0%, read-out: ATP luminescence by day-5 normalized; for Luminescence signal for ATP measurement, day-5 Average / viability at 10 µM: day-5; for O = Potential toxicity / Q = Potential toxicity / Reduction of ATP content after 5 days of continuous incubation: human, 5 days;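 on Luminescence signal for ATP measurement, day-2 Average: compounds at 10 µM with ATP read daily over 5 days of treatment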;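 on Luminescence signal for ATP measurement, day-3 Average: compounds at 10 µM with ATP read daily over 5 days of treatment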;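 on Luminescence signal for ATP measurement, day-4 Average: compounds at 10 µM with ATP read daily over 5 days of treatment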;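 on Luminescence signal for ATP measurement, day-5 Average: compounds at 10 µM with ATP read daily over 5 days of treatment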
Protocol: In addition, cell death was scored by PI-imaging on day 2 and day 5 of treatment.
Applicants introduced molecules (at 10 uM final concentration) to WI-38 fibroblasts and then assayed cell viability (through ATP measurement) everyday, during a course of 5 days of continuous treatment. […] Applicants also examined the morphology and scored cell death (propidium iodide staining) for cells treated with the above molecules. Of these 14 molecules, some appeared to cause cell toxicity. […] Despite the observed long-term toxicity, these molecules are still interesting as they may act as anti-tumor agents in vivo, should they have more pronounced cytotoxicity on highly proliferative tumor cells. When cells were incubated with these molecules for ˜24 hrs and then subject to hydrogen peroxide for 3 hrs, these molecules are all protective. […] Some of these small molecules may be toxic by themselves under certain conditions, but by inducing protective mechanisms, they may trigger “hormesis” and therefore protect cells from oxidative stress.

[5] = Summary score for characterization of 38 core set hits; settings: for D = Triple resistant: 2-point score, multiplex resistance (cadmium, MMS, H2O2); for S = Sum of Negative scores: human; for C = H2O2- & Cd-resistant: score, resistance to both H2O2 and cadmium
Protocol: 38 “core set” small molecules are listed and are assigned a score, based on the result for each individual characterization. From our small molecule screen for H2O2-resistance, we isolated 61 top hits. […] Specifically, a 2-point score was assigned to the most well-known and prominent longevity-related phenotypes, such as multiplex resistance, activation of FOXO3 and/or NRF2, and down-regulation of mTOR. Small molecules were also analyzed for their ability to extend C. elegans' lifespan in 4 to 6 independent trials, and the lifespan score scale is from 0 to 2: 0 for no obvious effects, 1 for lifespan extension observed in 2 trials, 2 for observed in more than 2 trials. Certain molecules appeared to have DNA-damaging effects and/or potential cell-toxicity in cultured human cells, and they receive a negative point.

[6] = H2O2 3 hrs, 10 uM, n = 6, negative control 5.44% ± 0.79%, read-out: Percentage of propidium iodide-positive dead cells (under H2O2 stress treatment), 3 hrs
[7] = H2O2 4 hrs, 10 uM, n = 6, negative control 16.81% ± 1.42%, read-out: Percentage of propidium iodide-positive dead cells (under H2O2 stress treatment), 4 hrs
[8] = H2O2 5 hrs, 10 uM, n = 6, negative control 22.50% ± 1.53%, read-out: Percentage of propidium iodide-positive dead cells (under H2O2 stress treatment), 5 hrs
[9] = pre-treatment at 10 uM, 3.5 hours of H2O2, DMSO control 27.4% ± 6.5%, */**/*** = reduced by one/two/three standard deviations, read-out: Percentage of propidium iodide-positive dead cells (under H2O2 stress treatment), at 10 uM
[10] = Experiment 1, HDF cells, read-out: Experiment 1, HDF cells (under H2O2 stress treatment), at 10 uM (fold change)
[11] = Experiment 2, HDF cells, read-out: Experiment 2, HDF cells (under H2O2 stress treatment), at 10 uM (fold change)
[12] = read-out: Experiment 1, H2A.X-P DNA damage foci staining (no H2O2 stress treatment), at 10 uM
[13] = read-out: Experiment 2, H2A.X-P DNA damage foci staining (no H2O2 stress treatment), at 10 uM
[14] = read-out: Experiment 2, H2A.X-P DNA damage foci staining (under H2O2 stress treatment), at 10 uM
[15] = read-out: Experiment 2, TP53BP1-P DNA damage foci staining (no H2O2 stress treatment), at 10 uM
[16] = read-out: Experiment 2, TP53BP1-P DNA damage foci staining (under H2O2 stress treatment), at 10 uM

| SMILES | Assay 7: H2O2-resistant, at 10 uM, validated by propidium iodide (PI) cell-death imaging (WI-38 cells [1]; 10 uM) | cytotoxicity at 10 µM (WI-38 cells [1]; [6]) [%] | cytotoxicity at 10 µM (WI-38 cells [1]; [9]) [%] | fold induction at 10 µM [2, 10] | fold induction at 10 µM [2, 11] | Assay 6: H2O2-resistant, at 10 uM, human dermal fibroblast (HDF) primary cells [2] | Exp. 1, induction of LC3A/B puncta (Up), total intensity normalized by total number of nuclei in the fields (LC3A/B puncta) | H = Potential Autophagy Induction (LC3A/B puncta; score) | H = Potential Autophagy Induction (LC3A/B puncta; summary score) | activity at 10 µM [3, 12] [%] | activity at 10 µM [3, 13] [%] | activity at 10 µM [3, 14] [%] | activity at 10 µM [3, 15] [%] | activity at 10 µM [3, 16] [%] | P = Potential DNA-damaging [3] | R = Potential DNA damaging [3] | Luminescence signal for ATP measurement, day-1 Average (WI-38 cells [4]) | Luminescence signal for ATP measurement, day-2 Average (WI-38 cells [4]) | Luminescence signal for ATP measurement, day-3 Average (WI-38 cells [4]) | Luminescence signal for ATP measurement, day-4 Average (WI-38 cells [4]) | further results |
| --- | --- | --- | --- | --- | --- | --- | --- | --- | --- | --- | --- | --- | --- | --- | --- | --- | --- | --- | --- | --- | --- |
| NS(=O)(=O)c1ccc(NC(=O)c2ccc([N+](=O)[O-])o2)cc1 [Gr-1A] | YES | 1.44 | 22.6 | 3.89 | 52.5 | YES | p < 0.001; Up, 1876%, | 1 | 1 | 196 | 223 | 179 | 411 | 653 | 1 | 1 | 477461 | 610735 | 739676 | 878508 | cytotoxicity at 10 µM (WI-38 cells [1]; [7]): 3.18%; cytotoxicity at 10 µM (WI-38 cells [1]; [8]): 7.49%; Assay 15: Potential autophagy induction by LC3A/B puncta assays (LC3A/B puncta): YES; Exp. 1, normalized change of nuclei numbers (Less cells) (LC3A/B puncta): Less cells, 55%,; Exp. 2, normalized change of nuclei numbers (Less cells) (LC3A/B puncta; Exp. 2, 10 μM): Less cells, 66%,; Exp. 2, normalized change of nuclei numbers (Less cells) (LC3A/B puncta; Exp. 2, 20 μM): Less cells, 57%,; Luminescence signal for ATP measurement, day-5 Average (WI-38 cells [4]): 943836; viability at 10 µM (WI-38 cells [4]): 91.9%; O = Potential toxicity (WI-38 cells [4]): 0; Q = Potential toxicity (WI-38 cells [4]): 0; Reduction of ATP content after 5 days of continuous incubation (WI-38 cells [4]): more than 40%; D = Triple resistant [5]: 0; S = Sum of Negative scores [5]: 1; C = H2O2- & Cd-resistant [5]: 1 |
| O=C(Nc1cc(C(F)(F)F)ccc1Cl)c1ccc([N+](=O)[O-])o1 [Gr-1B] | YES | 2.69 | 38.1 | 0.51 | 53.7 | YES | No induction | 0 | 0 | 134 | 95.8 | 118 | 211 | 137 | 0 | 0 | 442035 | 577575 | 726850 | 977658 | Luminescence signal for ATP measurement, day-5 Average (WI-38 cells [4]): 1021113; viability at 10 µM (WI-38 cells [4]): 99.4%; O = Potential toxicity (WI-38 cells [4]): 1; Q = Potential toxicity (WI-38 cells [4]): 0; Reduction of ATP content after 5 days of continuous incubation (WI-38 cells [4]): more than 40%; D = Triple resistant [5]: 0; S = Sum of Negative scores [5]: 0; C = H2O2- & Cd-resistant [5]: 1 |
| CCc1ccccc1NC(=O)c1ccc([N+](=O)[O-])o1 [Gr-1C] | YES | 2.49 | 7.8 | 15.2 | 49.1 | YES | p < 0.01; Up, 956%, | 1 | 1 | 217 | 311 | 178 | 375 | 552 | 1 | 1 | 421913 | 545683 | 662368 | 875881 | cytotoxicity at 10 µM (WI-38 cells [1]; [7]): 3.1%; cytotoxicity at 10 µM (WI-38 cells [1]; [8]): 4.05%; Assay 15: Potential autophagy induction by LC3A/B puncta assays (LC3A/B puncta): YES; Exp. 1, normalized change of nuclei numbers (Less cells) (LC3A/B puncta): Less cells, 70%,; Exp. 2, normalized change of nuclei numbers (Less cells) (LC3A/B puncta; Exp. 2, 10 μM): Less cells, 58%,; Exp. 2, normalized change of nuclei numbers (Less cells) (LC3A/B puncta; Exp. 2, 20 μM): Less cells, 41%,; Luminescence signal for ATP measurement, day-5 Average (WI-38 cells [4]): 819655; viability at 10 µM (WI-38 cells [4]): 79.8%; O = Potential toxicity (WI-38 cells [4]): 1; Q = Potential toxicity (WI-38 cells [4]): 0; D = Triple resistant [5]: 0; S = Sum of Negative scores [5]: 1; C = H2O2- & Cd-resistant [5]: 1 |
